The values that follow come from patent US5591734A, “17-(3-furyl)-5β, 14β-androstane derivatives active on the cardiovascular system, processes for their preparation and pharmaceutical compositions containing same” (Sigma-Tau Industrie Farmaceutiche Riunite S.p.A., priority 1992, dated 1997).

The target of assay [1] is T1, purified Na^+,K^+ -ATPase (Homo sapiens, UniProt P05023).
T1 construct: receptor purified according to Jorghensen (Jorghensen P., BBA, 1974, 356, 36); from tissue; kidney outer medulla inferred from the cited Jorgensen method
The assay can be described thus: biochemical. From the text:
(§1) To test the affinity for the receptor site of the Na^+,K^+ -ATPase and the inhibitory activity on the enzyme, the following tests were used: a) displacement of the specific ^3 H-ouabain binding from the Na^+,K^^+ -ATPase receptor purified according to Jorghensen (Jorghensen P., BBA, 1974, 356, 36) and Erdmann (Erdmann E. et al., Arzneim. Forsh., 1984, 34, 1314); b) inhibition of the activity of the purified Na^+,K^+ -ATPase measured as % of hydrolysis of ^32 P-ATP in presence and in absence of the tested compound (Mall F. et al., Biochem. Pharmacol., 1984, 33, 47).

Assay [2] addresses T2, Na^+,K^+ -ATPase receptor (Homo sapiens, UniProt P05023).
T2 construct: receptor purified according to Jorghensen (Jorghensen P., BBA, 1974, 356, 36); from tissue; kidney outer medulla inferred from the cited Jorgensen method
The assay can be described thus: displacement of the specific ^3 H-ouabain binding from the purified Na^+,K^+ -ATPase receptor. The settings on record: ^3 H-ouabain displacement, read-out: Binding ^3 H-Ouab. Displacement log IC50 (converted).
Excerpt: as §1

Assay [3] has as its system spontaneous hypertensive rats of the Milan (MHS). The assay can be described thus: antihypertensive activity in spontaneous hypertensive rats (MHS), indirect tail-cuff method. The settings on record: 10 mg/Kg/os daily for ten days in Methocel 0.5% w/v, 7 rats; for SBP (SYSTOLIC BLOOD PRESSURE FALL IN SPONTANEOUS HYPERTENSIVE RATS (MHS)): controls 172 +/- 2.0; for HR (heart rate): controls 328 +/- 8.6. It is filed as in vivo, rat.

Where [4] appears, read: purified Na^+,K^+ -ATPase, ^32 P-ATP hydrolysis, read-out: Inhibitory Activity log IC50 (converted).

Molecules are shown by their SMILES. Where a name gives a salt, the structure may show the parent alone. Read-outs that look alike come from different tables or passages of the source.

For `C[C@]12CC[C@H](O)C[C@H]1CC[C@@H]1[C@@H]2CC[C@]2(C)[C@@](O)(c3ccoc3)CC[C@]12O` [Comp. I-a, 17β(3-Furyl)-5β-androstane-3β,14β,17α-triol], the values for the concentration for half-maximal inhibition (IC50) in assay [1] (setting [4]) and in assay [2] were 31.6 µM and 1.58 µM, respectively. In addition, the “SBP (SYSTOLIC BLOOD PRESSURE FALL IN SPONTANEOUS HYPERTENSIVE RATS (MHS))” value (from here on “SBP”) in assay [3] is given as 149 +/- 4.3 mm Hg. Besides, in assay [3], the “HR (heart rate)” value is on record as 318 +/- 10.2 beats/min.

As for `C[C@]12CC[C@H](OCCO)C[C@H]1CC[C@@H]1[C@@H]2CC[C@]2(C)[C@@](O)(c3ccoc3)CC[C@]12O` [Comp. I-b, 3β-(2-Hydroxyethoxy)-17β-(3-furyl)-5β-androstane-14β,17α-diol], the results for the IC50 in assay [1] (setting [4]) and in assay [2] were 25.1 µM and 3.16 µM, respectively.

Consider `C[C@]12CC[C@H](OCCCN)C[C@H]1CC[C@@H]1[C@@H]2CC[C@]2(C)[C@@](O)(c3ccoc3)CC[C@]12O` [Comp. I-c, 3β-(3-Aminopropoxy), 17β-(3-furyl)-5β-androstane-14β,17α-diol], for which the IC50 (commonly the concentration that inhibits the measured activity by half) in assay [1] (setting [4]) is 7.94 µM; in assay [2] it was 0.501 µM.

Turning to `C[C@]12CC[C@H](OCCN3CCCC3)C[C@H]1CC[C@@H]1[C@@H]2CC[C@]2(C)[C@@](O)(c3ccoc3)CC[C@]12O` [Comp. I-d, 3β-(2-(1-Pyrrolidinyl)ethoxy)-17β-(3-furyl)-5β-androstane-14β,17α-diol], the IC50 in assay [1] (setting [4]) was 15.8 µM. Further, in assay [2], the IC50 was 0.631 µM. In assay [3], the “SBP” value is given as 158 +/- 2.5 mm Hg and the “HR (heart rate)” value is 325 +/- 9.3 beats/min.

For `CO[C@]1(c2ccoc2)CC[C@]2(O)[C@@H]3CC[C@@H]4C[C@@H](OCCN5CCCC5)CC[C@]4(C)[C@H]3CC[C@]12C` [Comp. I-f, 3β-(2-(β1-Pyrrolidinyl)ethoxy)-17β-(3-furyl)-17α-methoxy-5β-androstan-14β-ol], the concentration for half-maximal inhibition (IC50) in assay [1] (setting [4]) is 25.1 µM; in assay [2], 5.01 µM.

With `C[C@]12CCC(=O)C[C@H]1CC[C@@H]1[C@@H]2CC[C@]2(C)[C@@](O)(c3ccoc3)CC[C@]12O` [Comp. I-j], the IC50 was 79.4 µM in assay [1] (setting [4]) and 3.98 µM in assay [2].

Take `C[C@]12CCC(=NN=C(N)N)C[C@H]1CC[C@@H]1[C@@H]2CC[C@]2(C)[C@@](O)(c3ccoc3)CC[C@]12O` [Comp. I-k, 3-Guanidinoimino-17β-(3-furyl)-5β-androstane-14β,17α-diol]: the results for the half-inhibitory concentration (IC50) in assay [1] (setting [4]) and in assay [2] were 15.8 µM and 1 µM, respectively.

`C[C@]12CC[C@H](O)C[C@H]1CC[C@@H]1[C@@H]2CC[C@]2(C)[C@@](O)(c3ccnnc3)CC[C@]12O` [Comp. I-n, 17β-(4-Pyridazinyl)-5β-androstane-3β,14β,17α-triol]: the IC50 in assay [1] (setting [4]) is 25.1 µM; in assay [2], 2.51 µM.

As to `C[C@]12CC[C@H](SCCCN)C[C@H]1CC[C@@H]1[C@@H]2CC[C@@]2(C)[C@@]13O[C@@H]3C[C@]2(O)c1ccoc1` [Comp. I-r, 3β-(3-Aminopropylthio)-14β,15β-epoxy-17β-(3-furyl)-5β-androstan-17α-ol oxalate], the concentration for half-maximal inhibition (IC50) in assay [1] (setting [4]) is 31.6 µM; in assay [2] it was 3.98 µM. Further, the “SBP” value in assay [3] was 154 +/- 2.4 mm Hg. Also, the “HR (heart rate)” value in assay [3] is reported as 320 +/- 9.6 beats/min.

As to `C[C@]12CC[C@H](OCCOCCN3CCCC3)C[C@H]1CC[C@@H]1[C@@H]2CC[C@]2(C)[C@@](O)(c3ccoc3)CC[C@]12O` [Comp. I-w, 3β-(2-(2-(1-Pyrrolidinyl)ethoxy)ethoxy)-17β-(3-furyl)-5β-androstane-14β,17α-diol], the results for the IC50 in assay [1] (setting [4]) and in assay [2] were 3.98 µM and 0.631 µM, respectively.

Take `CNCCO[C@H]1CC[C@@]2(C)[C@H](CC[C@@H]3[C@@H]2CC[C@]2(C)[C@@](O)(c4ccoc4)CC[C@]32O)C1` [Comp. I-x, 3β-(2-Methylaminoethoxy)-17β-(3-furyl)-5β-androstane 14β,17α-diol]: the concentration for half-maximal inhibition (IC50) is 10 µM in assay [1] (setting [4]) and 0.501 µM in assay [2].

Consider `C[C@]12CC[C@H](OCCCNC(=N)N)C[C@H]1CC[C@@H]1[C@@H]2CC[C@]2(C)[C@@](O)(c3ccoc3)CC[C@]12O` [Comp. I-y, 3β(3-Guanidinopropoxy)-17β-(3-furyl)-5β-androstane-14β,17α-diol], for which the IC50 in assay [1] was 6.31 µM; in assay [2], 0.501 µM.

On to `C[C@]12CC[C@H](OCC(N)CN)C[C@H]1CC[C@@H]1[C@@H]2CC[C@]2(C)[C@@](O)(c3ccoc3)CC[C@]12O` (stereo partly drawn) [Comp. I-z, 3β-(2,3-Diaminopropoxy)-17β-(3-furyl)-5β-androstane-14β,17α-diol], for which the results for the 50% inhibitory concentration (IC50) in assay [1] and in assay [2] were 5.01 µM and 0.631 µM, respectively.

For the compound `C[C@]12CC[C@H](O)C[C@H]1CC[C@@H]1[C@@H]2CC[C@]2(C)[C@@](O)(C3=CC(=O)OC3)CC[C@]12O` [Ref. Comp., 3β,14β,17α-trihydroxy-5β-card-20(22)-enolide, reference compound], in assay [3], the “HR (heart rate)” value is listed as 334 +/- 11.7 beats/min.
